Measurements from ChEMBL document CHEMBL1125855, “C-2 desmethyl seco-mevinic acids. Monocyclic HMG-CoA reductase inbibitors” (Bioorg Med Chem Lett, 1991).

The compounds below were run against T1, 3-hydroxy-3-methylglutaryl-coenzyme A reductase (Homo sapiens, UniProt P04035) (assay: (§1) In vitro ability to inhibit HMG-CoA reductase). Settings: read-out: I50.
T1 sequence (P04035 whole entry): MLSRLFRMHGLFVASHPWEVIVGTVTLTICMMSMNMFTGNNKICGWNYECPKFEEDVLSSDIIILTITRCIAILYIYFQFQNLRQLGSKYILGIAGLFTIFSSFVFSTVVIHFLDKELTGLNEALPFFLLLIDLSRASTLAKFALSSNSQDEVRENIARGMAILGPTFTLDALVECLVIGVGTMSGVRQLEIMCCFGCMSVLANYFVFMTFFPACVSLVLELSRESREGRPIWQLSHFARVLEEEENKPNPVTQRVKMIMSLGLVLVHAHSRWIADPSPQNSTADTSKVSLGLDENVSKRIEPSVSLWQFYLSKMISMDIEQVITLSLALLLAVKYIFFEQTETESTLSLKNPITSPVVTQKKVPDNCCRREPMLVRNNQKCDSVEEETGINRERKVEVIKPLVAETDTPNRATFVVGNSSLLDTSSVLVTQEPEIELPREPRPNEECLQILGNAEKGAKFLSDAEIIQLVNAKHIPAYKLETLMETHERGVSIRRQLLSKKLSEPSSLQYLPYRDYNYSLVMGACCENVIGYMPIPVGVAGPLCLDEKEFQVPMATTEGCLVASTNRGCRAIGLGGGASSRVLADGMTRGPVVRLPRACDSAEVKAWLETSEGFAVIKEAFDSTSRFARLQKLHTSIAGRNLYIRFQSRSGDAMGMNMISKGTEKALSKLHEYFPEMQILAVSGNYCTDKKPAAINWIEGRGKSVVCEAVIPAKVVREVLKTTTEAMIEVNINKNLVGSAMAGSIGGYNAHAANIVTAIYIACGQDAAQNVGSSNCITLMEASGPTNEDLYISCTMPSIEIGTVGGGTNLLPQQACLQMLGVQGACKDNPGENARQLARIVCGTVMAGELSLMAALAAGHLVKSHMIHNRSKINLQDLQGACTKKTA

IC50	Structure (SMILES)
4.6 µM	CCC(C)(C)C(=O)OC[C@H]1CCCC[C@@H]1CCC(O)C[C@@H](O)CC(=O)O (stereo partly specified)
1500 µM	C[C@H]1C=CC[C@H](COC(=O)C(C)(C)C)[C@H]1CCC(O)CC(O)CC(=O)O (stereo partly specified)
1.7 µM	CCC[C@@H]1CCC[C@H](CC[C@@H](O)C[C@@H](O)CC(=O)O)[C@H]1COC(=O)C(C)(C)CC
4.9 µM	CCC[C@@H]1CCC[C@H](/C=C/[C@@H](O)C[C@@H](O)CC(=O)O)[C@H]1COC(=O)C(C)(C)CC
0.008 µM	CCC[C@@H]1CC[C@H](C)[C@H](CC[C@@H](O)C[C@@H](O)CC(=O)O)[C@H]1COC(=O)C(C)(C)CC

What follows are compounds tested against T2, 3-hydroxy-3-methylglutaryl-coenzyme A reductase (Rattus norvegicus, UniProt P51639) (assay: as §1). Settings: read-out: I50.
T2 sequence (P51639 whole entry): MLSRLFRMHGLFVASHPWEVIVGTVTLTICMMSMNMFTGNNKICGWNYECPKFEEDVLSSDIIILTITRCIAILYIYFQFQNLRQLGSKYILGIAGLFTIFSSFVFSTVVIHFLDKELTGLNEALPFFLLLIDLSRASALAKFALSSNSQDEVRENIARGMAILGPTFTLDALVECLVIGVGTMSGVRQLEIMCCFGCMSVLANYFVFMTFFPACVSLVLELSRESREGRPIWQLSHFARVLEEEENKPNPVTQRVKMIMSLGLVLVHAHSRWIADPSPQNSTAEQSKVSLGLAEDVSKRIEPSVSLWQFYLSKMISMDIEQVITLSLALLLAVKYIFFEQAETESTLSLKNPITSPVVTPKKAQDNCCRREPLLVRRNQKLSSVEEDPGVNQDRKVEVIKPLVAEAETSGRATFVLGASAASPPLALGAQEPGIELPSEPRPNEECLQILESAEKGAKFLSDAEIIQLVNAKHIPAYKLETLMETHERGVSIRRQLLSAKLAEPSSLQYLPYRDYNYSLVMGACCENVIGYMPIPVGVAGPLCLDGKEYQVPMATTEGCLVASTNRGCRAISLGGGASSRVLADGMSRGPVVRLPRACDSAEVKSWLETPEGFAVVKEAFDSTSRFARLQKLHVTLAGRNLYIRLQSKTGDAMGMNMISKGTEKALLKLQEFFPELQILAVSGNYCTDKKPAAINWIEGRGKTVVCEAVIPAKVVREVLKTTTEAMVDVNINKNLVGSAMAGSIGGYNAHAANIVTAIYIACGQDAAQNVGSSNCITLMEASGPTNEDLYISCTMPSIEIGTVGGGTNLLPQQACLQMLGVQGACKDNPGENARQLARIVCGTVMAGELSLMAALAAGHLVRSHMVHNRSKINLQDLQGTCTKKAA

IC50	Structure (SMILES)
320 µM	CC[C@H](C)C(=O)OC[C@H]1CCCC[C@@H]1CCC(=O)C[C@@H](O)CC(=O)O
